Assay results from ChEMBL document CHEMBL5154839, “Discovery of a selective and covalent small-molecule inhibitor of BFL-1 protein that induces robust apoptosis in cancer cells” (Eur J Med Chem, 2022).
Active and inactive are the calls of the source. No cut-off for these calls is given here.

Legend:
U-937 [1] = assay: Induction of apoptosis in human U-937 cells assessed as early apoptotic cells at 40 uM measured after 4 hrs by Annexin PI staining based flow cytometry method (reference value: 1.95 %); assay type: functional
Raji = assay: Growth inhibition of human Raji cells incubated for 4 days by WST assay; assay type: functional, cell-based; conditions: 96 h
[2] = target: Programmed cell death protein 1/Programmed cell death 1 ligand 1 (Homo sapiens, UniProt Q15116+Q9NZQ7); assay: Inhibition of biotinylated tagged PD-1 (unknown origin)/His tagged PD-L1 (unknown origin) protein-protein interaction assessed as inhibition constant incubated for 90 mins by AlphaLISA assay; assay type: protein-complex assay
[3] = target: T1, Bromodomain-containing protein 3 (Homo sapiens, UniProt Q15059); assay: Binding affinity to recombinant human BRD3 BD1 (24-144 residues) assessed as inhibition constant by fluorescence polarization assay
T1 sequence (Q15059 whole entry, the tested form may be a part): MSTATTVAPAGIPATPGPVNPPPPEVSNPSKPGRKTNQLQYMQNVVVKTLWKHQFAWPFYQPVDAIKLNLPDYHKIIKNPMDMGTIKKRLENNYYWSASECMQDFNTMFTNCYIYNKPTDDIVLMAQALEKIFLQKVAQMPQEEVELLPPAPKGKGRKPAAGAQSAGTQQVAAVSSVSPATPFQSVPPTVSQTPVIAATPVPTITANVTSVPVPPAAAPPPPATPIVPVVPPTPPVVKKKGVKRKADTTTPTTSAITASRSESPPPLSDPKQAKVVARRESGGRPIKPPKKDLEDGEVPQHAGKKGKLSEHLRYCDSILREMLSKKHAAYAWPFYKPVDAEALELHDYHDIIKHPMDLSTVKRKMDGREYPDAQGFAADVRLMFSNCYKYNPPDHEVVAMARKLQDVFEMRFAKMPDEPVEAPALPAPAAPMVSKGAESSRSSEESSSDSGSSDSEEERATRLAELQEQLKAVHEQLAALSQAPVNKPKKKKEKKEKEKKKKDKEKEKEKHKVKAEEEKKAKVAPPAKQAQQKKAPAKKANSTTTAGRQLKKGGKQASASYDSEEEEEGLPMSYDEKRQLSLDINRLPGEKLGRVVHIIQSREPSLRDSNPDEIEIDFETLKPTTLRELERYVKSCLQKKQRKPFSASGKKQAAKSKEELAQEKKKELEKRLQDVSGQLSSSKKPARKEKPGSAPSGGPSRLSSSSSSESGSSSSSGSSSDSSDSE

MV4-11 [4] = assay: Growth inhibition of human MV4-11 cells incubated for 4 days by WST assay; assay type: functional, cell-based; conditions: MV4-11, 96 h
U-937 [5] = assay: Upregulation of BFL-1 protein expression in human U-937 cells by Western blotting analysis; assay type: functional, cell-based
[6] = target: Transcriptional enhancer factor TEF-3 (Homo sapiens, UniProt Q15561); assay: Displacement of FAM- labeled YAP1 peptide from TEAD4 (217 to 434 residues) (unknown origin) expressed in Escherichia coli BL21 (DE3) assessed as inhibition constant incubated for 1.5 hrs by fluorescence polarization-based competitive binding assay
Chain of Transcriptional enhancer factor TEF-3 (Q15561 whole entry, the tested form may be a part): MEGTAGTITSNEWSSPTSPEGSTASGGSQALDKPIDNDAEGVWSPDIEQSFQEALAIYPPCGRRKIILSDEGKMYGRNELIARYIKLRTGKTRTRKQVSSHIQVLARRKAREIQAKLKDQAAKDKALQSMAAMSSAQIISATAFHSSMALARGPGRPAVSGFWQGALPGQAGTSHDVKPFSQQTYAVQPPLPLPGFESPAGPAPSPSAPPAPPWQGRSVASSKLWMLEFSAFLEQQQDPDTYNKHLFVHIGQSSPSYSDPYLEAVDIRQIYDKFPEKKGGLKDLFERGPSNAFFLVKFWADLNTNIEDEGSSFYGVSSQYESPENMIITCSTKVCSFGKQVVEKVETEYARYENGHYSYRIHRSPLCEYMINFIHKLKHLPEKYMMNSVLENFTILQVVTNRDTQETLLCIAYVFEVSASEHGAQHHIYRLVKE

Bcl-2-related protein A1 [7] = target: T2, Bcl-2-related protein A1 (Homo sapiens, UniProt Q16548); assay: Binding affinity to His-tagged recombinant BFL-1 (1 to 151 residues) (unknown origin) expressed in Escherichia coli BL21 (DE3) assessed as dissociation constant by surface plasmon resonance analysis
T2 sequence (Q16548 whole entry): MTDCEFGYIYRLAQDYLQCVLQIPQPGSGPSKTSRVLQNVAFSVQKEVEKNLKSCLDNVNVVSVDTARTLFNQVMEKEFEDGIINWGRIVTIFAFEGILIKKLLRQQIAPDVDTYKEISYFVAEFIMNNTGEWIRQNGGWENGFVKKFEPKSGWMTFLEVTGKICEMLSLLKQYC

U-937 [8] = assay: Induction of apoptosis in human U-937 cells assessed as necrotic cells at 20 uM measured after 4 hrs by Annexin PI staining based flow cytometry method (reference value: 0.00 %); assay type: functional
U-937 [9] = assay: Induction of apoptosis in human U-937 cells assessed as late apoptotic cells at 10 uM measured after 4 hrs by Annexin PI staining based flow cytometry method (reference value: 1.62 %); assay type: functional
K562 [10] = assay: Growth inhibition of human K562 cells incubated for 4 days by WST assay; assay type: functional, cell-based; conditions: K562, 96 h
Bcl-2-related protein A1 [11] = target: T2, Bcl-2-related protein A1; assay: Displacement of fluorescein tagged BID BH3 peptide from His-tagged recombinant BFL-1 (1 to 151 residues) (unknown origin) expressed in Escherichia coli BL21 (DE3) assessed as inhibition constant incubated for 24 hrs by fluorescence polarization-based competitive binding assay
K562 [12] = assay: Upregulation of BFL-1protein expression in human K562 cells by Western blotting analysis; assay type: functional, cell-based
MV4-11 [13] = assay: Upregulation of BFL-1protein expression in human MV4-11 cells by Western blotting analysis; assay type: functional, cell-based
U-937 [14] = assay: Induction of apoptosis in human U-937 cells assessed as increase in cytochrome c level incubated for 3 hrs by immunoblotting analysis; assay type: functional, cell-based
[15] = target: BCL2A11/BBC3 (Homo sapiens) (UniProt Q16548+Q9BXH1); assay: Inhibition of human BFL-1/PUMA protein-protein interaction in human Kasumi 1 cells assessed as decrease in PUMA protein level at 80 uM measured after 5 hrs by co-immunoprecipitation assay; assay type: cell-based
RPMI-8226 = assay: Growth inhibition of human RPMI-8226 cells incubated for 4 days by WST assay; assay type: functional, cell-based; conditions: RPMI-8226, 96 h
[16] = target: Induced myeloid leukemia cell differentiation protein Mcl-1 (Homo sapiens, UniProt Q07820); assay: Displacement of fluorescein tagged BID BH3 peptide from human MCL-1 (172 to 327 residues) expressed in Escherichia coli BL21 (DE3) assessed as inhibition constant incubated for 1.5 hrs by fluorescence polarization-based competitive binding assay
Chain of Induced myeloid leukemia cell differentiation protein Mcl-1 (Q07820 whole entry, the tested form may be a part): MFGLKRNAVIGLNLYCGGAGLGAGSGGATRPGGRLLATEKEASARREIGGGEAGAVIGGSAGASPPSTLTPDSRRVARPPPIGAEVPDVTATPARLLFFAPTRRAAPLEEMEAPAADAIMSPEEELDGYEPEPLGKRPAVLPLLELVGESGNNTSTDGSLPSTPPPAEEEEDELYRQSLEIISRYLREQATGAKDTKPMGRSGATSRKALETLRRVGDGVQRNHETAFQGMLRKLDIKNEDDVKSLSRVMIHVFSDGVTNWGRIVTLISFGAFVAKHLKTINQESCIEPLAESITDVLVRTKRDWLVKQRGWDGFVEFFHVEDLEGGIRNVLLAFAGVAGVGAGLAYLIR

[17] = Displacement of FAM- labeled PDI peptide from MDM4 C17S mutant (14 to 111 residues) (unknown origin) expressed in Escherichia coli BL21 (DE3) assessed as inhibition constant incubated for 1.5 hrs by fluorescence polarization-based competitive binding assay; set-up: species or system Homo sapiens
[18] = target: E3 ubiquitin-protein ligase Mdm2 (Homo sapiens, UniProt Q00987); assay: Displacement of FAM- labeled PDI peptide from MDM2 (1 to 118 residues) (unknown origin) expressed in Escherichia coli BL21 (DE3) assessed as inhibition constant incubated for 1.5 hrs by fluorescence polarization-based competitive binding assay
Chain of E3 ubiquitin-protein ligase Mdm2 (Q00987 whole entry, the tested form may be a part): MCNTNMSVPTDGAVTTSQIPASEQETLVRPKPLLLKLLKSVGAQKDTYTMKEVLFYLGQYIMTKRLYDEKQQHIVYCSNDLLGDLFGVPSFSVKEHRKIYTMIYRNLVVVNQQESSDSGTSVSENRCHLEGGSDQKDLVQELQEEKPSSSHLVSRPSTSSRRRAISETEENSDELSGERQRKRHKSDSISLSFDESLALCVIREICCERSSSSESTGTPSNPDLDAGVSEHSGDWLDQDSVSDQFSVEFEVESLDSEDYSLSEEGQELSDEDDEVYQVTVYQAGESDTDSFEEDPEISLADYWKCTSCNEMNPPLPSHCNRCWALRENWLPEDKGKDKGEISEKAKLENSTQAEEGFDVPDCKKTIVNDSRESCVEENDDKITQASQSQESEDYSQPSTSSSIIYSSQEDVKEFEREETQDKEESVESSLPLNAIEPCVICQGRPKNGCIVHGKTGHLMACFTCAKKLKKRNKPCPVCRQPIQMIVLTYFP

U-937 [19] = assay: Induction of apoptosis in human U-937 cells assessed as early apoptotic cells at 20 uM measured after 4 hrs by Annexin PI staining based flow cytometry method (reference value: 1.95 %); assay type: functional
[20] = target: beta-catenin-B-cell lymphoma 9 protein complex (Homo sapiens, UniProt P35222); assay: Inhibition of N-terminal biotinylated human BCL9 (350 to 375 residues)/C-terminal 6-His-tagged beta-catenin (1 to 781 residues) (unknown origin) expressed in Escherichia coli BL21 (DE3) protein-protein interaction assessed as inhibition constant incubated for 1 hr by Alphascreen assay
Chain of beta-catenin-B-cell lymphoma 9 protein complex (P35222 whole entry, the tested form may be a part): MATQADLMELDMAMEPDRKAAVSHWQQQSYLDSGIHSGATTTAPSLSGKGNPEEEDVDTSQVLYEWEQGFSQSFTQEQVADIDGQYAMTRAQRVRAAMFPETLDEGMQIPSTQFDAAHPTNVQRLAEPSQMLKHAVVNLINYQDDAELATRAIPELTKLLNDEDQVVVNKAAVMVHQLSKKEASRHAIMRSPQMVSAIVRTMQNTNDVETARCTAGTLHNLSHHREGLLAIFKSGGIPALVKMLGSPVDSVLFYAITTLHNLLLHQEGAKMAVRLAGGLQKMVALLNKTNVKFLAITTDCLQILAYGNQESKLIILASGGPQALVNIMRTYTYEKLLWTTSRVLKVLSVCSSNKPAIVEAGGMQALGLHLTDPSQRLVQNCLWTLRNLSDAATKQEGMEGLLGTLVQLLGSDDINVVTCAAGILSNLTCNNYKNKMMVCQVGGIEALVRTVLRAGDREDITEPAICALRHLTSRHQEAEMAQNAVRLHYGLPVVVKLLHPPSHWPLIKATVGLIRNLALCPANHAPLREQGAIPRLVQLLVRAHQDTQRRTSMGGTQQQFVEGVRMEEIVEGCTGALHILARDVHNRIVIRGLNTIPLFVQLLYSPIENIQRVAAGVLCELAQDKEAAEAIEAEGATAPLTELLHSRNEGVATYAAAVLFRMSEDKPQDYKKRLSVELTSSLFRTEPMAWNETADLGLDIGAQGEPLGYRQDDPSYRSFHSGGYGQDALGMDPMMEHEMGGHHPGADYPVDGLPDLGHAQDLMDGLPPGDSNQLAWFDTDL
Chain of beta-catenin-B-cell lymphoma 9 protein complex (O00512 whole entry, further chain, the tested form may be a part): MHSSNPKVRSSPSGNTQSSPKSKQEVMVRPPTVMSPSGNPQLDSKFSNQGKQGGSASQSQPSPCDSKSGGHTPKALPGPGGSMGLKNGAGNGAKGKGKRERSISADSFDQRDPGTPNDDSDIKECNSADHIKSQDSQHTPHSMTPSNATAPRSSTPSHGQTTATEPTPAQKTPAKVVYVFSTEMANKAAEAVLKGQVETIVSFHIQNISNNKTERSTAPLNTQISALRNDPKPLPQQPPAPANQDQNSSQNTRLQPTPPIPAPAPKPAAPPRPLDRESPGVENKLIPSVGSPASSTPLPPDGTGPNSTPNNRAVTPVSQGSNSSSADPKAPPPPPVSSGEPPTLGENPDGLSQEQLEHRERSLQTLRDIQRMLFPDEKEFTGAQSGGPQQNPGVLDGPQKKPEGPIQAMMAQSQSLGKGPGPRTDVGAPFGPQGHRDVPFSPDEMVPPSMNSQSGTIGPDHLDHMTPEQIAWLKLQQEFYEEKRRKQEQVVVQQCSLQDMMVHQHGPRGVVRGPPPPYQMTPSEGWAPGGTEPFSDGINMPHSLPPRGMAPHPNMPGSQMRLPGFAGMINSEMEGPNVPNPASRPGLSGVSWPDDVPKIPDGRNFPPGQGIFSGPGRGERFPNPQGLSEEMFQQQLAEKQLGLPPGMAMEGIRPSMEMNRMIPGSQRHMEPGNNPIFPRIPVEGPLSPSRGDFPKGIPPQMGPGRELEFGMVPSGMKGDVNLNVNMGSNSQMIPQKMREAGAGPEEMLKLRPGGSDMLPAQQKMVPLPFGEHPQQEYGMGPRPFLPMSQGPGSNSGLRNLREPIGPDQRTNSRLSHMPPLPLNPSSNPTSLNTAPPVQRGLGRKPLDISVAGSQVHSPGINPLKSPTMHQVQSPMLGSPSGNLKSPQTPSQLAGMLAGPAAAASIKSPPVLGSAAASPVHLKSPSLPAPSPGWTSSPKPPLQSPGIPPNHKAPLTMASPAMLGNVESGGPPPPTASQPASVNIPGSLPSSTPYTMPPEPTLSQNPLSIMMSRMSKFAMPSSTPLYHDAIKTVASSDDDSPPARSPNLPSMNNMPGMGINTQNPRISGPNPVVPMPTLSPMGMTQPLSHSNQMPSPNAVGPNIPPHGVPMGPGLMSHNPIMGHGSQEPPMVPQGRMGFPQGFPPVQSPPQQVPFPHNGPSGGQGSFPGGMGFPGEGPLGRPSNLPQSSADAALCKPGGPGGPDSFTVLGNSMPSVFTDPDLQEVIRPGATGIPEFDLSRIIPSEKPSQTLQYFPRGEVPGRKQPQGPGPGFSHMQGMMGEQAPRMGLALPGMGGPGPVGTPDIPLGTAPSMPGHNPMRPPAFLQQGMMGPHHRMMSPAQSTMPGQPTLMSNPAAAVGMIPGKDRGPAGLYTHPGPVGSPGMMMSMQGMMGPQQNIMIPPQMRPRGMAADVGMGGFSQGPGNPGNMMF

U-937 [21] = assay: Induction of apoptosis in human U-937 cells assessed as assessed as increase in PARP cleavage measured after 24 hrs by Western blot analysis; assay type: functional, cell-based; conditions: DDE = dose-dependent effect
U-937 [22] = assay: Growth inhibition of human U-937 cells incubated for 4 days by WST assay; assay type: functional, cell-based; conditions: U-937, 96 h
[23] = target: Bcl-2-related protein A1 (Homo sapiens) (UniProt Q16548); assay: Binding affinity to His-tagged recombinant BFL-1 (1 to 151 residues) (unknown origin) expressed in Escherichia coli BL21 (DE3) assessed as association constant by surface plasmon resonance analysis
U-937 [24] = assay: Induction of apoptosis in human U-937 cells assessed as early apoptotic cells at 10 uM measured after 4 hrs by Annexin PI staining based flow cytometry method (reference value: 1.95 %); assay type: functional
[25] = Displacement of fluorescein tagged BID BH3 peptide from His-tagged recombinant BFL-1 (1 to 151 residues) C55A mutant (unknown origin) expressed in Escherichia coli BL21 (DE3) assessed as inhibition constant incubated for 24 hrs by fluorescence polarization-based competitive binding assay; set-up: species or system Homo sapiens
Kasumi 1 [26] = assay: Induction of apoptosis in human Kasumi 1 cells overexpressing BFL-1 assessed as increase in cytochrome c level at 5 to 40 uM incubated for 3 hrs by immunoblotting analysis; assay type: functional, cell-based; conditions: dose 5-40 µM
[27] = target: T1, Bromodomain-containing protein 3; assay: Binding affinity to recombinant human BRD3 BD2 (306-417 residues) assessed as inhibition constant by fluorescence polarization assay
Kasumi 1 [28] = assay: Upregulation of BFL-1 protein expression in human Kasumi 1 cells by Western blotting analysis; assay type: functional, cell-based
MM1.S = assay: Upregulation of BFL-1protein expression in human MM1.S cells by Western blotting analysis; assay type: functional, cell-based
[29] = target: Bromodomain-containing protein 2 (Homo sapiens, UniProt P25440); assay: Binding affinity to recombinant human BRD2 BD1 (72-205 residues) assessed as inhibition constant by fluorescence polarization assay
Chain of Bromodomain-containing protein 2 (P25440 whole entry, the tested form may be a part): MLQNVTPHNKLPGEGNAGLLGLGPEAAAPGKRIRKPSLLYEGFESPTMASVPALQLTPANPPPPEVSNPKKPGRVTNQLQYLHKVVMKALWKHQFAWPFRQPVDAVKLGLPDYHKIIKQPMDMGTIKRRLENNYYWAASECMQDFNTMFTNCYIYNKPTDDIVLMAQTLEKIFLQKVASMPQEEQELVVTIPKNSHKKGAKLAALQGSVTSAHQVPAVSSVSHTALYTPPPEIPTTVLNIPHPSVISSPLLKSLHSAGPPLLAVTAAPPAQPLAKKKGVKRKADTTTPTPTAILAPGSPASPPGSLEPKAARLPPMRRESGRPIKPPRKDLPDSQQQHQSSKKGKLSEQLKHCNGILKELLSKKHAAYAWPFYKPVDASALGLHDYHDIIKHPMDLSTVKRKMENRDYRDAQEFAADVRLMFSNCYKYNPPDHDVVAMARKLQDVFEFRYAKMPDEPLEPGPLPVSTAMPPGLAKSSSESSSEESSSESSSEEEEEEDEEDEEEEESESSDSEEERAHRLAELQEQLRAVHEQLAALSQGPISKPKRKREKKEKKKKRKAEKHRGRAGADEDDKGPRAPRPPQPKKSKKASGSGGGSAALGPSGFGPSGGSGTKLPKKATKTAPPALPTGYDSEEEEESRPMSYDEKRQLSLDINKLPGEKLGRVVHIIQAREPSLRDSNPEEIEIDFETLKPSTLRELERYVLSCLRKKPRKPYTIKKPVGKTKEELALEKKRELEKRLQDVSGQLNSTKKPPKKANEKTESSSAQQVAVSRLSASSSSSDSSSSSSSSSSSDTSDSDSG

Question: What does the source list for `C=CC(=O)N1CCN(c2c3ccc(-c4cccc(F)c4)cc3nn2Cc2ccccc2)CC1`?
Answer: Activity (U-937 [1]): 5.52%; IC50 (Raji): 26.9 µM; Ki [2]: > 400 µM; Ki [3]: > 400 µM; IC50 (MV4-11 [4]): 3.9 µM; Activity (U-937 [5]): Active; Ki [6]: > 400 µM; Kd (Bcl-2-related protein A1 [7]): 0.262 µM; Activity (U-937 [8]): 1.02%; Activity (U-937 [9]): 2.19%; IC50 (K562 [10]): 7.7 µM; Ki (Bcl-2-related protein A1 [11]): 0.41 µM; Activity (K562 [12]): Active; Activity (MV4-11 [13]): Active; Activity (U-937 [14]): Active; inhibition [15]: Active; IC50 (RPMI-8226): 8.7 µM; Ki [16]: 111 µM; Ki [17]: > 400 µM; Ki [18]: > 400 µM; Activity (U-937 [19]): 8.02%; Ki [20]: > 400 µM; Activity (U-937 [21]): Dde; IC50 (U-937 [22]): 2.8 µM; Ka [23]: 2.09 10^5/Ms; Activity (U-937 [24]): 6.03%; Ki [25]: 8.68 µM; Activity (Kasumi 1 [26]): Active; Ki [27]: > 400 µM; Activity (Kasumi 1 [28]): Active; Activity (MM1.S): Active; Ki [29]: > 400 µM
